In ChEMBL document CHEMBL5053553, “Structure-activity relationship around PI-2620 highlights the importance of the nitrogen atom position in the tricyclic core” (Bioorg Med Chem, 2021) one finds IC50 data, which are given here for 15 molecules.

Experiment [1] deals with Microtubule-associated protein tau (Homo sapiens, UniProt P10636). Kind of experiment: Displacement of [3H]PI-2620 from Tau in human brain homogenate incubated for 60 mins by radioligand binding assay. In kind it is tissue-based. In general terms: Loss of bound radioactivity is the signal in a displacement assay; it reports binding, not function.
In experiment [2] the target is T1, Amine oxidase [flavin-containing] A (Mus musculus, UniProt Q64133).
T1 sequence (Q64133 whole entry): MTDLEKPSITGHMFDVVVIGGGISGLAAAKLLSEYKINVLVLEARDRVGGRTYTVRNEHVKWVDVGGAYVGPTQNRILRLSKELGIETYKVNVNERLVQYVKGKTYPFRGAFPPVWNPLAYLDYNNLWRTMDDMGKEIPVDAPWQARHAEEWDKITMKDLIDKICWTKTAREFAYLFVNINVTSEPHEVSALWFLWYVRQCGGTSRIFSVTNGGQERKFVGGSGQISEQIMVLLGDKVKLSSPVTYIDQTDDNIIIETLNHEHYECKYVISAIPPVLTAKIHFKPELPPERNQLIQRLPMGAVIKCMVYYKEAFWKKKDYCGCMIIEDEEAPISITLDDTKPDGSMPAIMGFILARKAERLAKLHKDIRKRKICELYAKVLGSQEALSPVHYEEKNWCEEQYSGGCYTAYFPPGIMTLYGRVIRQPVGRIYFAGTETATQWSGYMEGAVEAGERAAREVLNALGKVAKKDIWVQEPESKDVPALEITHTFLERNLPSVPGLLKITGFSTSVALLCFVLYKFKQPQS
Description: Displacement of [18F]-FEH from MAO-A in mouse brain homogenate incubated for 60 mins by imaging analysis. In kind it is tissue-based.

Molecules are shown by their SMILES. Where only a bound is given, the exact number is not on record here.

Sequence of Microtubule-associated protein tau (P10636 whole entry): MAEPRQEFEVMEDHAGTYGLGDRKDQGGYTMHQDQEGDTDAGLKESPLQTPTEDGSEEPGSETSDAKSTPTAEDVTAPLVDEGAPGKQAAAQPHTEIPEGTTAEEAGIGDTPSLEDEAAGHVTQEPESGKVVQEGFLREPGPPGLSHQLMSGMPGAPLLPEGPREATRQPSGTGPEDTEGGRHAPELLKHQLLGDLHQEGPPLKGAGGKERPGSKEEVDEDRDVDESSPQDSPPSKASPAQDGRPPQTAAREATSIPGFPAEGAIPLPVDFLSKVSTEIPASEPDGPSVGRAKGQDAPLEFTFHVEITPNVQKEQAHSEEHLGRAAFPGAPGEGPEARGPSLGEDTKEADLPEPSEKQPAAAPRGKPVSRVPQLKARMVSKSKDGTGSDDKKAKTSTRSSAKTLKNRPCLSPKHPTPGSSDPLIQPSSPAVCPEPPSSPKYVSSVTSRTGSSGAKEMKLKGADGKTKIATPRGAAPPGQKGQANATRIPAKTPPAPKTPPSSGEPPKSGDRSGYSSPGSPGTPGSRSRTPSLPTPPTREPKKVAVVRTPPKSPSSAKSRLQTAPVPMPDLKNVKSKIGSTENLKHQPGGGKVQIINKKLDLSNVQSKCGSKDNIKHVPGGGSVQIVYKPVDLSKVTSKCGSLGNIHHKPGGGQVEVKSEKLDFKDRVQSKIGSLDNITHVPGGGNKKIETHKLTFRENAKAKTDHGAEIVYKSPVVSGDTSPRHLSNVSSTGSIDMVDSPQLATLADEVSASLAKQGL

Consider `Fc1cc(-c2cc3[nH]c4ccncc4c3cn2)ccn1`, for which the IC50 – broadly, the concentration at which inhibition is half-maximal – in experiment [1] was 82 nM; in experiment [2] it was more than 1000 nM.
For the molecule `Fc1cc(-c2ccc3c(n2)[nH]c2cccnc23)ccn1`, in experiment [1], the IC50 came to 260 nM.
Molecule `Fc1cc(-c2ccc3c(n2)[nH]c2ncccc23)ccn1` gave an IC50 in experiment [1] of 310 nM.
For the molecule `Fc1ncccc1-c1ccc2c(n1)[nH]c1ccncc12`, the values for the IC50 in experiment [1] and in experiment [2] were 15.5 nM and more than 1000 nM, respectively.
Regarding `Fc1ncccc1-c1cnc2c(c1)[nH]c1ccncc12`, the IC50 in experiment [1] was 344 nM; in experiment [2] it was more than 1000 nM.
For `Fc1ncccc1-c1ccc2c(c1)[nH]c1ccncc12`, in that order: 3.5 nM and 7.8 nM.
With `Fc1ncccc1-c1ccc2c(n1)[nH]c1cnccc12`, in experiment [1], the IC50 is 70 nM.
Still for that read-out and setting: for `Fc1cc(-c2ccc3c(c2)[nH]c2ccncc23)ccn1` the value was 3.1 nM; for `Fc1cc(-c2ccc3c(n2)[nH]c2cnccc23)ccn1`, 36 nM.
Consider `Fc1cc(-c2ccc3c(n2)[nH]c2ccncc23)ccn1`, for which the IC50 was 4.9 nM in experiment [1] and more than 1000 nM in experiment [2].
Consider `Fc1cc(-c2cnc3c(c2)[nH]c2ccncc23)ccn1`, for which the IC50 was 116 nM in experiment [1] and more than 1000 nM in experiment [2].
In the same order, the values of `Fc1cc(-c2nc3[nH]c4ccncc4c3s2)ccn1` are 18 nM and more than 1000 nM.
On to `Fc1ncccc1-c1ccc2c(n1)[nH]c1ncccc12`, for which, in experiment [1], the IC50 was more than 1000 nM.
For the molecule `Fc1ncccc1-c1cc2[nH]c3ccncc3c2cn1`, the IC50 in experiment [1] was 732 nM; in experiment [2], more than 1000 nM.
In the case of `Fc1ncccc1-c1ccc2c(n1)[nH]c1cccnc12`, in experiment [1], the IC50 came to 559 nM.
